Data published in ChEMBL document CHEMBL1148587, “Imidazo[1,2-a]pyrimidines as functionally selective and orally bioavailable GABA(A)alpha2/alpha3 binding site agonists for the treatment of anxiety disorders” (J Med Chem, 2006).
pKi: −log10 of the molar value. Calls of active or inactive are those of the source. The calls are words filed in the database; no cut-off is given here.

Key:
[1] = molecular target: T1, GABA-A receptor; alpha-3/beta-3/gamma-2 (Homo sapiens) (UniProt P18507+P28472+P34903); experiment: Efficacy against human recombinant GABAA alpha3 in combination with beta-3-gamma-2 expressed in L(tk-) cells by 36Cl ion flux modulation; type: functional, cell-based
[2] = molecular target: T2, GABA-A receptor; alpha-1/beta-3/gamma-2 (Homo sapiens) (UniProt P14867+P18507+P28472); experiment: Efficacy against human recombinant GABAA alpha1 in combination with beta3gamma2 expressed in L(tk-) cells by 36Cl ion flux modulation; type: functional, cell-based
[3] = molecular target: T3, GABA-A receptor; alpha-3/beta-3/gamma-2 (Homo sapiens, UniProt P18507+P28472+P34903); experiment: Displacement of [3H]Ro-151788 from human recombinant GABAA alpha3 in combination with beta3gamma2 expressed in L(tk-) cells; type: cell-based
T3 sequence (P18507 whole entry): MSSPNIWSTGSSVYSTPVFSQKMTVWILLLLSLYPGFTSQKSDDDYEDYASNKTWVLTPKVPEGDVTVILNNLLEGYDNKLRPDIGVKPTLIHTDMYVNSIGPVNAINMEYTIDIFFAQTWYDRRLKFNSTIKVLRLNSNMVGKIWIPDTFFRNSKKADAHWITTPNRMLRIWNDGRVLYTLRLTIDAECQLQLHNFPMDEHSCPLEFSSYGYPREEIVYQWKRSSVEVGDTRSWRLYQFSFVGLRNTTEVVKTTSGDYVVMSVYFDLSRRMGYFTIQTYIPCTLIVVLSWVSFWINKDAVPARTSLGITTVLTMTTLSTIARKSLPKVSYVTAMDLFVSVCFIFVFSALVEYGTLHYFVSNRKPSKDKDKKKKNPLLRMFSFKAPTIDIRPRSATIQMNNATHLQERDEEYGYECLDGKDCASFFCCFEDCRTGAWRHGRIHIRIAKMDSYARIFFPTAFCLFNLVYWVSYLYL
T3 sequence (P28472 whole entry): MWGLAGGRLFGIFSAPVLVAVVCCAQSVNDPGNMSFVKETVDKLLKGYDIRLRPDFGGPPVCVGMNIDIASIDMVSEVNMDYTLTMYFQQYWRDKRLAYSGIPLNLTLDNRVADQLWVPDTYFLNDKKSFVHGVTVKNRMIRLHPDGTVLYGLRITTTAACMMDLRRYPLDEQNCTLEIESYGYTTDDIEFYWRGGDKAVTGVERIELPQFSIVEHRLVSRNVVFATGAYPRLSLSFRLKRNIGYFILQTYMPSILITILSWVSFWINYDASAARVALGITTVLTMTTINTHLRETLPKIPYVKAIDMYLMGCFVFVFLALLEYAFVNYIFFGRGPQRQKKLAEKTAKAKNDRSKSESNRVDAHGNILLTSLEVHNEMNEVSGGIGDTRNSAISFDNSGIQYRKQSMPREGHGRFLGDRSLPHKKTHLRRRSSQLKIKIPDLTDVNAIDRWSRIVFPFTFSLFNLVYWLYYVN
T3 sequence (P34903 whole entry): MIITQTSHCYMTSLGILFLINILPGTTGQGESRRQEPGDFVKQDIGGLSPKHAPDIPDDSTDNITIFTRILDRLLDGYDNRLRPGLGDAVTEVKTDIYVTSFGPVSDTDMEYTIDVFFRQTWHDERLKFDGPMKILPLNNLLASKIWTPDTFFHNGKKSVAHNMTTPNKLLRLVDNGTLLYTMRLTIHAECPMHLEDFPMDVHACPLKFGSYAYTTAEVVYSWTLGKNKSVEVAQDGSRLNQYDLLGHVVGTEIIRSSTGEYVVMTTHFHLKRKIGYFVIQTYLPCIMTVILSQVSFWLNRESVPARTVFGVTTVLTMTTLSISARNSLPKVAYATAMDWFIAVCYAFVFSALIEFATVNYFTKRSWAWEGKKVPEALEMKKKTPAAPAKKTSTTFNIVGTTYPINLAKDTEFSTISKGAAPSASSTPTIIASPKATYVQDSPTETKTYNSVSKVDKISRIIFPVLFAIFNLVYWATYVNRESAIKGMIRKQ

Rattus norvegicus = experiment: Activity in rat elevated plus maze assay at 5 mg/kg, ip; type: functional, organism-based; set-up: dose 5 mg/kg
[4] = molecular target: T2, GABA-A receptor; alpha-1/beta-3/gamma-2 (Homo sapiens); experiment: Efficacy against human recombinant GABAA alpha-1 in combination with beta3gamma2 expressed in L(tk-) cells by whole cell patch clamp method; type: functional, cell-based
[5] = molecular target: T4, GABA-A receptor; alpha-5/beta-3/gamma-2 (Homo sapiens, UniProt P18507+P28472+P31644); experiment: Displacement of [3H]Ro-151788 from human recombinant GABAA alpha5 in combination with beta3gamma2 expressed in L(tk-) cells; type: cell-based
T4 sequence (P18507 whole entry): T3 sequence (P18507 whole entry)
T4 sequence (P28472 whole entry): T3 sequence (P28472 whole entry)
T4 sequence (P31644 whole entry): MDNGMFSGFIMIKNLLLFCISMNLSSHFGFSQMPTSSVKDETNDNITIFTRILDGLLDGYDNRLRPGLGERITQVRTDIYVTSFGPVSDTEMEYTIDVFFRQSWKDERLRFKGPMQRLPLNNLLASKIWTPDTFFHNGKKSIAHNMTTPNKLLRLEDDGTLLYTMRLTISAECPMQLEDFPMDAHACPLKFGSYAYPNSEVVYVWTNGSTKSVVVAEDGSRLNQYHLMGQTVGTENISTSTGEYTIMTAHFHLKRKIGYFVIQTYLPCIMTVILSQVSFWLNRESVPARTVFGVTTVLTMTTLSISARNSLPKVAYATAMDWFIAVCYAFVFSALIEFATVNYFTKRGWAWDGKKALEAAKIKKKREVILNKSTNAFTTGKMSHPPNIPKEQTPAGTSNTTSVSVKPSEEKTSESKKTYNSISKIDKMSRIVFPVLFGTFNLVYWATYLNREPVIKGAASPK

[6] = molecular target: GABA-A receptor; alpha-5/beta-3/gamma-2 (Homo sapiens) (UniProt P18507+P28472+P31644); experiment: Efficacy against human recombinant GABAA alpha5 in combination with beta3gamma2 expressed in L(tk-) cells by whole cell patch clamp method; type: functional, cell-based
[7] = molecular target: T5, GABA-A receptor; alpha-1/beta-3/gamma-2 (Homo sapiens, UniProt P14867+P18507+P28472); experiment: Displacement of [3H]-Ro15-1788 from human recombinant GABAA alpha1 in combination with beta-3-gamma-2 expressed in L(tk-) cells; type: cell-based
T5 sequence (P14867 whole entry): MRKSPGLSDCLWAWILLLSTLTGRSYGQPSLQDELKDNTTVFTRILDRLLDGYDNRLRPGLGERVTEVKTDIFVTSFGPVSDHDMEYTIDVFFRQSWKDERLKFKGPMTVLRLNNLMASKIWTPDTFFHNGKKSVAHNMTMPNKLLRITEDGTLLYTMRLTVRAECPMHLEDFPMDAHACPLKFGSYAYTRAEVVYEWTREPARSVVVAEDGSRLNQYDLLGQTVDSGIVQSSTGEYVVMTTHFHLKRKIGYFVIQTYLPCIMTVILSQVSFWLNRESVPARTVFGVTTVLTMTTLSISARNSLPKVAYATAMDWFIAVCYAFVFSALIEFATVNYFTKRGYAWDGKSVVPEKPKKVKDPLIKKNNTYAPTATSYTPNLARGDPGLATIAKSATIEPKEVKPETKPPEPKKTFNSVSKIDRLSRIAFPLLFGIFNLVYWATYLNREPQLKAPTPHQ
T5 sequence (P18507 whole entry): T3 sequence (P18507 whole entry)
T5 sequence (P28472 whole entry): T3 sequence (P28472 whole entry)

[8] = molecular target: T6, GABA-A receptor; alpha-2/beta-3/gamma-2 (Homo sapiens, UniProt P18507+P28472+P47869); experiment: Displacement of [3H]-Ro15-1788 from human recombinant GABAA alpha2 in combination with beta3gamma2 expressed in L(tk-) cells; type: cell-based
T6 sequence (P18507 whole entry): T3 sequence (P18507 whole entry)
T6 sequence (P28472 whole entry): T3 sequence (P28472 whole entry)
T6 sequence (P47869 whole entry): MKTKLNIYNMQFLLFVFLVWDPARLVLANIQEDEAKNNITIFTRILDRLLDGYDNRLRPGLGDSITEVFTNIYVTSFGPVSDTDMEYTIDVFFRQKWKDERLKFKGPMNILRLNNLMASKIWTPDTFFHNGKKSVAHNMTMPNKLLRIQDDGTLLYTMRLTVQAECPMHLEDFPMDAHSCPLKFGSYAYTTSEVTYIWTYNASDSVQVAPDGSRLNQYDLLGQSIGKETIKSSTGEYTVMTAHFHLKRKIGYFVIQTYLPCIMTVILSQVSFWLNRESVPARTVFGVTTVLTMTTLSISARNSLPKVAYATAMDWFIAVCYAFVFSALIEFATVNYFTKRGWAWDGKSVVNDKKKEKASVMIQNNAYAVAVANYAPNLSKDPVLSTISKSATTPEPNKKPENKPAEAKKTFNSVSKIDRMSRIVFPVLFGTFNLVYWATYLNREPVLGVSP

[9] = molecular target: T1, GABA-A receptor; alpha-3/beta-3/gamma-2 (Homo sapiens); experiment: Efficacy against human recombinant GABAA alpha3 in combination with beta-3-gamma-2 expressed in L(tk-) cells by whole cell patch clamp method; type: functional, cell-based
[10] = Oral bioavailability in dog; type: ADME, organism-based, Canis lupus familiaris; settings: in vivo
[11] = Plasma clearance in rat; type: ADME, organism-based
[12] = Oral bioavailability in rat; type: ADME, organism-based; settings: in vivo
[13] = Plasma clearance in dog; type: ADME, organism-based, Canis lupus familiaris

SMILES | Efficacy [1] | Efficacy [2] | pKi [3] | Activity (Rattus norvegicus) | Efficacy [4] | pKi [5] | Efficacy [6] | pKi [7] | pKi [8] | Efficacy [9] | bioavailability [10] | clearance [11] | bioavailability [12] | clearance [13]
Cc1ccn2c(-c3cccc(-c4cccnc4)c3)cnc2c1 | 9% | -15% | 7.80 | – | – | – | – | – | – | – | – | – | – | –
CNC1=Nc2ccc(Cl)cc2C(c2ccccc2)=[N+]([O-])C1 | – | – | – | Active | – | – | – | – | – | – | – | – | – | –
CCO/N=C(\C)c1ccc2c(c1)ncn2-c1cccc(-c2cccnc2)c1 | – | – | 8.04 | – | 42% | 8.80 | 26% | 8.82 | 7.88 | 127% | – | – | – | –
N#Cc1cccc(F)c1-c1cc(-c2cnc3nc(C(F)(F)F)ccn23)ccc1F | – | – | 9.42 | – | 8% | 9.30 | – | 9.06 | – | 33% | – | – | – | –
CCn1ncnc1COc1nn2c(-c3ccccc3F)nnc2cc1C(C)(C)C [MK-0777] | – | – | 9.52 | – | – | 9.70 | – | 9.59 | 9.52 | – | – | – | – | –
Cn1cnc(COc2nn3c(-c4ccccc4)nnc3c3c2C2CCC3CC2)n1 | – | – | – | – | 34% | – | – | – | – | 55% | – | – | – | –
N#Cc1ccccc1-c1cccc(-c2cnc3nc(C(F)(F)F)ccn23)c1 | – | – | 9.48 | – | 20% | 9.68 | – | 9.18 | – | 69% | – | – | – | –
Cn1ncnc1COc1nn2c(-c3cc(F)ccc3F)nnc2cc1C(C)(C)C | – | – | 9.15 | – | 2% | 8.64 | 39% | 9.10 | 9.15 | 43% | – | – | – | –
c1ccc(-c2nnc3c4c(c(OCc5ccccn5)nn23)C2CCC4CC2)cc1 | – | – | 8.00 | – | 32% | 9.00 | – | 7.25 | 7.66 | 45.6% | – | – | – | –
N#Cc1c(F)cccc1-c1cc(-c2cnc3nc(C(F)(F)F)ccn23)ccc1F | 56% | 31% | 8.12 | – | – | 8.55 | – | 8.34 | – | – | – | – | – | –
N#Cc1ccc(F)cc1-c1cc(-c2cnc3nc(C(F)(F)F)ccn23)ccc1F | – | – | 9.21 | – | 34% | 9.59 | – | 9.19 | – | – | – | – | – | –
Cc1ccn2c(-c3cccc(-c4ccccc4C#N)c3)cnc2n1 | – | – | 9.43 | – | 7% | 9.92 | 1% | 9.41 | 9.11 | 81% | < 5% | 13 mL/min/kg | 42% | 41 mL/min/kg
N#Cc1ccccc1-c1cc(-c2cnc3nc(C(F)(F)F)ccn23)ccc1F | – | – | 9.47 | – | 12.4% | 9.70 | 14% | 9.30 | 9.28 | 43% | – | – | – | –
N#Cc1ccccc1-c1cc(F)cc(-c2cnc3nc(C(F)(F)F)ccn23)c1 | 18% | 4% | 7.85 | – | – | 8.80 | – | 8.28 | – | – | – | – | – | –
Cc1ccn2c(-c3cccc(-c4ccccc4C#N)c3)cnc2c1 | – | – | 8.44 | – | -10% | 8.92 | -14.6% | 8.35 | – | 57% | – | 44 mL/min/kg | 2% | –
N#Cc1ccccc1-c1cccc(-c2cnc3nc(C(F)(F)F)ccn23)c1F | – | – | 8.59 | – | 2% | 9.03 | 18% | 8.57 | – | 43% | – | – | – | –
CC(C)(O)c1ccn2c(-c3ccc(F)c(-c4ccc(F)cc4C#N)c3)cnc2n1 | 45% | 45% | 8.89 | – | – | 10.00 | – | 8.57 | 8.48 | – | – | – | – | –
